From patent publication US20230181027A1, “METHODS AND MATERIALS FOR TREATING NEUROMYELITIS OPTICA SPECTRUM DISEASES” (Mayo Foundation for Medical Education and Research, priority 2019, published 2023)

Tests used:
[1] = test system: microglia; assay: Iba1 immunostaining of spinal cord microglia (activation or depletion); assay type: in vivo, mice
From the text: To examine microglial activation in our murine model of NMO, genetic labeling of microglia (CX3CR1^GFP/+) and immunostaining for the microglial marker Iba1 were used. […] In addition, NMO-IgG induced striking morphological transition of microglia, from “resting” ramified to “activated” bushy phenotype in time-dependent manner (FIG. 4C).
Microglial activation after NMO-IgG infusion indicates a potential role for microglia in NMO pathogenesis. To test this idea, microglia ablation approaches were utilized to directly examine the requirement of microglia in NMO-induced motor deficits. […].
TM (Sigma) was administered as a solution in corn oil (Sigma) to mice over 4 weeks of age via i.p. injection. Animals received four doses of TM (150 mg kg^-1, 20 mg mL^-1 in corn oil) in 48 hour intervals. […] Mice administered with DT only (without TM) were used as control for all ablation experiments.
(§1) Mice were deeply anaesthetized with isoflurane (5% in O2) and perfused transcardially with 20 mL PBS followed by 20 mL of cold 4% paraformaldehyde (PFA) in PBS. The spinal cord was removed and post-fixed with 4% PFA for 6 hours at 4° C. Samples were then transferred to 30% sucrose in PBS overnight. […] Cell counting and fluorescent signal intensity was quantified using ImageJ software (National Institutes of Health, Bethesda, MD).
Quantification of Iba1 cells was done with ImageJ software (NIH Image). […]

[2] = test system: murine model of NMO; assay: Rotarod test (latency to fall) in murine model of NMO with intrathecal NMO-IgG infusion; assay type: in vivo, mice
From the text: To investigate the cellular and molecular mechanisms underlying NMO pathology, a murine model was developed that utilizes IgG purified from NMO patient serum (NMO-IgG) or monoclonal AQP4-specific IgG. IgG collected from healthy individuals, or from healthy control subjects (control-IgG), or a control monoclonal IgG of irrelevant specificity was used in each experiment. NMO-IgG and control-IgG was purified by protein G adsorption (FIG. 1). An osmotic mini-pump delivery system loaded with either NMO-IgG, AQP4-IgG or control-IgG was placed subcutaneously and IgG was infused continuously into the spinal subarachnoid space via intrathecal catheter for 5 to 7 days (FIG. 2A). […] Gait analysis was also performed using ink tracking as described elsewhere (see, e.g., Zhang et al., J. Autoimmun. 53:67-77 (2014)). […] After 5 days of either […], 3 µg/µL, or 1 µg/µL NMO-IgG treatment, stride lengths decreased from an average of 5.7 cm to 2.6, 3.8, and 5.0 cm respectively (FIGS. 2C and 2D).
A 3.5 cm polyurethane-silicone catheter (Alzet, CA) was inserted at the condylar canal to accesses the subarachnoid space at the cisterna magna and extended to lumbar level of spinal cord. Five days later an osmotic mini-pump delivery system, containing either NMO-IgG or control-IgG, was placed subcutaneously over the right shoulder. IgG was delivered continuously for 5-7 days (1-10 µg/day) (FIG. 2A).
The rotarod tests were performed using a five-lane Rotarod apparatus (Med Assocaites Inc). The rotarod speed started from 4 rounds per minute and uniformly accelerated to 40 rounds per minute over 5 minutes. Each mouse was tested for 3 times with 15 minute intervals. For gait analysis, mouse fore and hind limbs were covered by different color ink and allowed to walk freely across a narrow strip of paper. Stride length of hind limbs was reported as the mean of 5 sequential steps.
Minocycline hydrochloride was dissolved in PBS with 1% DMSO at 30 µg/µL and mixed with 20 µg/µL NMO-IgG to make a mixture of 15 µg/µL minocycline and 10 µg/µL NMO-IgG. […]

[3] = test system: microglia-astrocyte interaction; assay: Microglia-astrocyte interaction (Iba1/GFAP or CX3CR1-GFP/GFAP overlap) in L4 spinal cord; assay type: in vivo, mice; conditions: intrathecal, 150 µg/day, with NMO-IgG infusion
From the text: However, the question remains as to what cellular and molecular mechanisms underlie microglial function in NMO. […] Under control conditions, GFAP^+ astrocytes rarely overlap with Iba1^+ microglia. However, spatial overlapping was abundant after NMO-IgG exposure. […] Specifically, on average only 17% of microglia interact with astrocytes under control conditions while 65% of microglia overlap with astrocytes after NMO-IgG infusion.
as §1, with “overnight. Sample sections ([…] in thickness) were prepared on gelatin-coated glass slide with a cryostat (Leica).” for “overnight.”

[4] = test system: astrocyte complement C3; assay: Complement C3 and GFAP double staining of astrocytes in L4 spinal cord; assay type: in vivo, mice; conditions: minocycline co-infusion with NMO-IgG
From the text: Astrocytes exposed in culture to NMO-IgG increase their production and secretion of all complement components, except C1q, which is made by activated microglia (see, Howe et al., Glia 62:692-708 (2014)). […] In contrast, C3 expression was principally restricted to the lumen of blood vessels following control-IgG exposure. The percentage of C3^+ astrocytes in spinal cord of mice receiving NMO-IgG was ~5-fold higher than that of control-IgG recipients (FIG. 10A). C3 upregulation in astrocytes is independent of microglia, as a similar C3 increase was found after microglia ablation (FIG. 11).
as §1, with “overnight. Sample sections ([…] in thickness) were prepared on gelatin-coated glass slide with a cryostat (Leica).” for “overnight.”

[5] = test system: microglia; assay: In situ microglial process chemoattraction assay (C3a-containing pipettes); assay type: cell-based, mice
Method: The cleavage of the complement component C3 produces two signaling molecules, C3a and C3b.
Hippocampal tissue slices ([…] thick) were prepared from P14-21 mice and incubated in imaging media. Microglia were visualized by GFP. For each image in the time-series, 15 z-steps spaced […] apart were collected per image ([…] total depth). Images were taken at 5 minute intervals for up to 1 hour on Scientifica 2-photon microscope with an X20 lens. Image processing and analysis was performed using NIH Image J software.

Molecule: FC(F)(F)c1ccc(CNc2ccc(Cc3c[nH]c4ncc(Cl)cc34)cn2)cn1 [PLX3397, Pexidartinib]
- depletion of microglia in the L4 spinal cord (Iba1+ cell density) ([1]; PLX3397 chow, day 5 after NMO-IgG infusion, versus control chow): eliminated most of the microglia
- motor function after NMO-IgG infusion (rotarod) versus control chow-treated group ([2]; PLX3397 chow started 7 days before NMO-IgG infusion): significantly better

Molecule: CN(C)c1ccc(O)c2c1C[C@H]1C[C@H]3[C@H](N(C)C)C(O)=C(C(N)=O)C(=O)[C@@]3(O)C(O)=C1C2=O [minocycline]
- effect on NMO-IgG induced motor dysfunction in rotarod test ([2]; intrathecal, 150 µg/day, co-infused with NMO-IgG): prevented the NMO-IgG induced motor dysfunction
- effect on motor impairment when given after onset ([2]; systemic injection after 2 days of NMO-IgG infusion): reversed the motor impairment
- effect on microglia-astrocyte interaction [3]: reduced microglia-astrocyte interaction
- effect on NMO-IgG upregulation of astrocyte complement C3 [4]: not altered

Molecule: C3a: signaling molecule produced by cleavage of complement component C3
- time to induce microglial process chemotaxis [5]: ≤ 30 min

Molecule: diphtheria toxin
- depletion of spinal microglia ([1]; CX3CR1CreER/+:R26iDTR/+ mice after tamoxifen, 1 to 3 days after DT 50 µg/Kg i.p.): mostly depleted
